In US20250276038A1, “HISTATIN COMBINATIONS AND METHODS FOR TREATING OR INHIBITING CELL LOSS” (VISUS THERAPEUTICS, INC., priority 2021, published 2025):
Where no end group is shown, it is not given here.

Assays:
[1] = system: stromal keratocytes; assay: Loss of stromal keratocytes after surgical keratectomy (in vivo confocal corneal tomography, keratocyte counts); parameters: species or system New Zealand White rabbits; settings: for Percent keratocyte reduction from baseline: 35 μl topical TID, 80 μM histatin-1 (+100 μM peptide 6 in combination), mean±SD
Protocol: Twenty-four New Zealand White rabbits, approximately 4-6 months old and weighing 2-3 kg were divided into 3 groups of 8 animals and dosed topically three times per day (TID) for 28 days with either 35 μl Phosphate Buffered Saline (PBS), 35 μl 80 μM histatin-1 (Hst-1), or 35 μl 80 μM histatin-1+100 μM peptide 6 (P6) combination following unilateral surgical keratectomy procedure.
(§1) Animals were administered buprenorphine (0.01-0.05 mg/kg, SC) for pain control just prior to the procedure. A second dose of buprenorphine (0.01-0.05 mg/kg, SC) was administered in the evening, and then administered on an as needed basis. Animals was induced for surgery with a ketamine/xylazine cocktail (50 mg/kg ketamine and 10 mg/kg xylazine IM); anesthesia was maintained with isoflurane delivered in oxygen through a mask as needed. Following induction of anesthesia, 5% betadine solution, on autoclaved sterile gauze, was used to clean the periocular (eyelids) area of the surgical eye. Betadine was then used to irrigate the ocular surface and conjunctival cul-de-sac, which was then thoroughly irrigated with sterile eyewash. One drop each of 0.5% proparacaine HCl and 10% phenylephrine HCl, was then applied to the ocular surface for ocular anesthesia and mydriasis, respectively. The rabbit was positioned under an operating microscope and an eyelid speculum was affixed. An adjustable, 8 mm corneal vacuum trephine (Moria Surgical, Antony, France) was used to create a central corneal defect of approximately 10-25% stromal depth (approximately 100 μm). The trephined section of the cornea was removed, and the wound left open. Immediately following surgery, a single dose of topical antibiotic (Neomycin Polymyxin B Sulfates Gramicidin ophthalmic solution) was applied.
(§2) The corneas of anesthetized animals were imaged with a Heidelberg Retinal Tomograph fitted with a Rostock Corneal Module (HRT III RCM). This compact ophthalmic device uses confocal scanning laser microscopy to provide high-resolution en-face images of cornea cells and structures, including keratocytes subpopulations and the corneal sub-basal nerve plexus. Central cornea confocal scans from the epithelium to the endothelium were done and optical stacks of 400 μm×400 μm and 2 μm thick sections were generated and electronically stored for analysis.
A sampling region of the stack of optical scans was selected that corresponded to approximately 150 μm above the endothelium. This was done by counting 75 images up from the endothelium and selecting 5 adjacent images to serve as replicates. Keratocytes presented as reflective distinct irregular shaped objects. […] An unpaired Student's T test was used to compare the histatin-1 and the histatin-1+peptide 6 groups; p<0.05 was considered statistically significant.

[2] = system: corneal endothelial cells; assay: Corneal endothelial cell density after surgical anterior keratectomy (corneal tomography); assay type: in vivo, New Zealand White rabbits; settings: 35 μl 80 μM topical TID; for Percent endothelial cell density reduction from baseline: mean±SD
Protocol: Sixteen New Zealand White rabbits, approximately 4-6 months old and weighing 2-3 kg were divided into 2 groups of 8 animals and dosed topically three times per day (TID) for 28 days with either 35 μl phosphate buffered saline (PBS) or 35 μl 80 μM histatin-1 following unilateral surgical keratectomy procedure.
as §1, with “Animals were” for “Animals was”, “The rabbits were” for “The rabbit was”
as §2, with “including corneal sub-basal nerve plexus,” for “including”, “endothelial cell layer.” for “sub-basal nerve plexus.”, “400×400” for “400 μm×400”
The optical slice with the endothelium layer having the best resolution and largest coverage was selected. Of the 16 animals in the study, only 14 animals had scans with usable endothelial cell layers at 1 or more time points, and a maximum of only 4 usable scans at any single time point. The HRT III cell counting software was used to adjust image contrast and brightness to enhance manual cell counting within a selected region of interest (ROI). ROIs were >0.005 mm^2. Number of cells within a ROI ranged from 118-287. Partial cells (>½) at the edges of the ROI were counted only on 2 sides at right angles. The software computed endothelial cell density as cells/mm^2 based on manual counts in the selected ROI. Data are presented as mean±standard deviation cells/mm^2. An unpaired Student's T test was used to compare the PBS and histatin-1 groups at each follow-up time point; p<0.05 was considered statistically significant.

[3] = system: corneal nerves; assay: Corneal nerve regeneration after surgical anterior keratectomy (Tuj1 wholemount immunohistochemistry); assay type: in vivo, New Zealand White rabbits; settings: Day 28; 35 μl topical TID, 80 μM histatin-1 (+100 μM peptide 6); mean±SD
Protocol: Twelve New Zealand White rabbits, approximately 4-6 months old and weighing 2-3 kg were divided into 3 groups of 4 animals and dosed topically three times per day (TID) for 28 days with either 35 μl phosphate buffered saline (PBS), 35 μl 80 μM histatin-1 or 35 μl of 80 μM histatin-1+100 μM peptide 6 following a unilateral surgical keratectomy procedure.
Animals were administered buprenorphine (0.01-0.05 mg/kg, SC) for pain control just prior to the procedure. A second dose of buprenorphine (0.01-0.05 mg/kg, SC) was administered in the evening, and then administered on an as needed basis. Animals were induced for surgery with a ketamine/xylazine cocktail (50 mg/kg ketamine and 10 mg/kg xylazine IM); anesthesia was maintained with isoflurane delivered in oxygen through a mask as needed. Following induction of anesthesia, 5% betadine solution, on autoclaved sterile gauze, was used to clean the periocular (eyelids) area of the surgical eye. […]
While corneas were incubating in their final wash, slides with imaging spacers were prepared. A 0.36, 0.6 mm or combination of the two adhesive imaging spacers (Grace Biolabs cat #SA-S-3L; custom cut to 22×40 mm rectangle with an oblong window cut out) was adhered to a glass slide; spacer thickness was determined by corneal thickness measured on the day of necropsy for treated eyes; control corneas utilized a 0.36 mm spacer. […]

[4] = system: endothelial cells in human non-surgical cornea buttons; assay: Corneal button preservation under stressed storage conditions (trypan blue staining); assay type: cell-based; settings: 1 μM in standard cornea storage media
Protocol: The effect of 1 μM histatin-1 formulated in Life4° C.™ or Optisol™ Corneal Storage Medium was assessed on the preservation of endothelial cells in 9 pairs of human non-surgical cornea buttons stored under stressed conditions. The tissues were individually stored in 20 mL Bausch & Lomb™ Cornea Tissue Viewing Chambers at room temperature (24±2° C.) for 6 to 14 days, preceded by storage at 4° C. for 3 days. All doners were White/Caucasian origin. The median age was 64 years and ranged from 14 to 73. The amount of time from the time of death to the preservation of the corneas ranged from 4 hours 15 mins to 20 hours 48 mins. Endothelial cell counts at the time of tissue harvest was 2222±240 cells/mm^2. Histatin-1 was added every other day to the right eye (OD) in a volume of 200 μL in an amount sufficient to maintain a concentration of 1 μM. Left eyes (OS) were given an equal volume of PBS. Endothelial cell viability was assessed by trypan blue staining as non-viable area expressed as a percentage of 80% of the central cornea. Briefly, cornea buttons were transferred from storage chambers to viewing wells (Barron Punch Cutting Block), endothelium side up, and 0.06% trypan blue in a volume sufficient to cover the endothelial layer limbus to limbus was applied and left for 90 secs, and then rinsed twice with PBS. […]

## DSHEKRHHGYRRKFHEKHHSHREFPFYGDYGSNYLYDN [histatin-1]
[1]; 35 μl topical TID after keratectomy
  Complete recovery of keratocytes by Day: ≤ 28 days
[1]; Day 7
  Percent keratocyte reduction from baseline: 40.2±3.3%
[1]; Day 10
  Percent keratocyte reduction from baseline: 37.5±2.4%
[1]; Day 14
  Percent keratocyte reduction from baseline: 32.7±15.3%
[1]; Day 21
  Percent keratocyte reduction from baseline: 26.5±6.0%
[1]; Day 28
  Percent keratocyte reduction from baseline: 2.7±13%
[2]
  Recovery and apparent normalization of endothelial cell density starting by Day: ≤ 10 days
[2]; Day 7
  Percent endothelial cell density reduction from baseline: 15.1±2.8%
[2]; Day 10
  Percent endothelial cell density reduction from baseline: 1.1±9.1%
[2]; Day 14
  Percent endothelial cell density reduction from baseline: −0.2±5.9%
[2]; Day 21
  Percent endothelial cell density reduction from baseline: 4.5±7.8%
[2]; Day 28
  Percent endothelial cell density reduction from baseline: 7.4±2.8%
[3]
  Area of nerve regeneration: 26.1±7 mm^2
  Area of nerve regeneration as percent of initial 8 mm lesion area (50.3 mm^2): 51.9±14%
[4]
  Reduction of stained area in the endothelial area versus PBS: 45%
